Measurements taken from patent US4870097A, “Pharmaceutical use of derivatives of tryptophan” (priority 1984, dated 1989).

What was measured:
[1] = test system: colon of rabbits stimulated with CCK-8; test: Antispastic activity in the colon of rabbits stimulated with CCK-8; assay type: in vivo, rabbit; parameters: Antispastic activity, experiment 1 / Antispastic activity, experiment 2 / Antispastic activity, experiment 3: unit not given here; conditions: CCK 100 ng/kg; for ED50: Oryctolagus cuniculus, iv, three experiments
Experimental: The abdomen of an anaesthetised rabbit is cut open to expose the transverse colon. A balloon full of water is inserted at the point established and connected to a pressure transducer by means of a polyethylene cannula filled with H2 O.
The optimum sensitivity in relation to the physiological contractions is fixed and the products are administered through the femoral veins. Contractions are induced by the administration of 100 ng/kg of CCK.

[2] = test system: guinea pig gall bladder contracted with CCK-8; test: Anti-CCK activity on guinea pig gall bladders in vitro; assay type: biochemical; conditions: CCK-8 10 ng/ml, concentration antagonising 50% of contracting effect
Outline: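 Longitudinal gall bladder strips in Krebs at 32° C, gassed with O2/CO2 95:5, were contracted with CCK-8 at 10 ng/ml and contractions recorded isometrically via force transducer. ED50 in mcg/ml is the compound concentration antagonising 50% of CCK contraction, derived by regression over at least three experiments.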

[3] = test system: analgesic activity of morphine; test: Tail Flick Test: increase in the analgesic effect of morphine; assay type: in vivo, rats; conditions: for percentage variation in the latency of the pain sensation, 10' / percentage variation in the latency of the pain sensation, 20' / percentage variation in the latency of the pain sensation, 30' / percentage variation in the latency of the pain sensation, 45' / percentage variation in the latency of the pain sensation, 60' / percentage variation in the latency of the pain sensation, 90' / M(10'-90') average percentage variation: compound 10 mg/kg i.p. + morphine 2 mg/kg (row Morphine: alone); for percentage variation in the latency of the pain sensation, 10' / percentage variation in the latency of the pain sensation, 20' / percentage variation in the latency of the pain sensation, 30' / percentage variation in the latency of the pain sensation, 45' / percentage variation in the latency of the pain sensation, 60' / percentage variation in the latency of the pain sensation, 90': ± S.E.; for M(10'-90') average percentage variation: mean 10'-90'; for Potency ratio relative to morphine alone: rat, in vivo
Outline: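 Male non-fasted rats, 150-200 g; heat source (75 °C) on tail, latency to tail movement timed, 8 s cut-off. Measured before and 10, 20, 30, 45, 60, 90 min after analgesic dosing; percentage variation per animal, averaged over groups of five.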

Compound	Antispastic activity, experiment 1 ([1]; 1 mg/kg iv)	Antispastic activity, experiment 2 ([1]; 1 mg/kg iv)	Antispastic activity, experiment 3 ([1]; 1 mg/kg iv)	Antispastic activity, experiment 1 ([1]; 3 mg/kg iv)	Antispastic activity, experiment 2 ([1]; 3 mg/kg iv)	Antispastic activity, experiment 3 ([1]; 3 mg/kg iv)	Antispastic activity, experiment 1 ([1]; 10 mg/kg iv)	Antispastic activity, experiment 2 ([1]; 10 mg/kg iv)	Antispastic activity, experiment 3 ([1]; 10 mg/kg iv)	ED50 [1] [mg/kg]	Anti CCK-8 activity, ED50 [2] [µg/mL]	percentage variation in the latency of the pain sensation, 10' [3] [%]	percentage variation in the latency of the pain sensation, 20' [3] [%]	percentage variation in the latency of the pain sensation, 30' [3] [%]	percentage variation in the latency of the pain sensation, 45' [3] [%]	percentage variation in the latency of the pain sensation, 60' [3] [%]	percentage variation in the latency of the pain sensation, 90' [3] [%]	M(10'-90') average percentage variation [3] [%]	Potency ratio relative to morphine alone [3]	Antispastic activity, experiment 3 ([1]; 0.3 mg/kg iv)
O=C(N[C@@H](Cc1c[nH]c2ccccc12)C(=O)O)OCc1ccc(Cl)cc1 [Compound 2]	-10.9	-16.8	-38.8	-31.4	-56.6	-41.5	-85.9	-74.4	-90.2	4.67	13.5	50.0 ± 14.9	25.0 ± 26.0	75.6 ± 17.6	23.7 ± 19.6	41.0 ± 20.3	43.6 ± 16.4	44.6	1.50	
CC(C)c1ccc(C(=O)N[C@@H](Cc2c[nH]c3ccccc23)C(=O)O)cc1 [Compound 20]	-30.8	-44.2	-34.7	-36.0	-60.3	-59.0	-82.5	-100.0		3.41	17.9	20.0 ± 12.8	33.1 ± 22.0	37.6 ± 18.9	37.5 ± 18.8	54.4 ± 19.3	33.2 ± 18.1	36.0	1.21	-12.8
